Laboratory results from US9522928B2, “Mannosylated compounds useful for the prevention and the treatment of infectious diseases” (UNIVERSITE DE STRASBOURG, priority 2011, dated 2016).

Test system: HIV-1 R5
Assay: HIV-1 R5 trans-infection of MAGI-CCR5 cells mediated by DCs
Type: cell-based
Procedure: ManC1, […] (comparative) and compounds of the invention (ManC24, ManC17, TriManC24, TriDiManC24, TriManinsatC24 and ManinsatC24) were serially diluted in water. Human DCs (1×10^5 in 200 μl ) were pre-treated with different concentrations of compounds, or mannan (Sigma) or culture medium alone, in RPMI 1640 medium containing 10% FBS for 45 min at 37° C., prior infection with HIV-1 (100 ng of p24Gag) for 3 h. Excess free virus and molecules were removed by three washes. DCs were then cocultured with MAGI -CCR5 cells (1×10^5) at 37° C. plated in a 48-well plate. After two days, viral infection of MAGI-CCR5 cells was quantitated following beta-galactosidase assays and enumerating blue cells by light microscopy.
The IC50 were determined by serial dilution of each compound. The trans-infection assays were repeated a minimum of three times, and the IC50 determined using KaleidaGraph.
To investigate the ability of the compounds of the invention to inhibit HIV-1 trans infection, we chose to infect human DCs in order to best mimic in vivo conditions. Human DCs were exposed to different compounds (namely, Mannan (control), ManC1 (comparative), ManC11 (comparative), ManC17, ManC24, TriManC24, TriDiManC24, ManinsatC24 and TriManinsatC24) for 45 min at 37° C., before inoculation with HIV-1 (strains R5 and X4) for 3 hours. After extensive washings to remove unbound virions and mannosides, DCs were then co-cultured with MAGI-CCR5 cells. This procedure allows precise quantification of HIV-1 replication in reporter MAGI-CCR5 cells by detection of beta-galactosidase activity. These cells express an integrated copy of the HIV long terminal repeat (LTR) fused to the beta-galactosidase reporter gene, and express the CD4 receptor and the CCR5 and CXCR4 co-receptors, required for entry of HIV-1 R5 and X4 respectively. Upon viral entry leading to viral Tat expression and activation of the LTR, these cells permit quantification of HIV trans-infection after two days.

## CCCCCCCCCCCCCCCCCCCCCCCCC(=O)NC(COCCC(=O)NCCOCCOCCOCCOC1OC(CO)C(O)C(O)C1O)(COCCC(=O)NCCOCCOCCOCCOC1OC(CO)C(O)C(O)C1O)COCCC(=O)NCCOCCOCCOCCOC1OC(CO)C(O)C(O)C1O (stereo not shown) [TriManC24]
  residual level of trans-infection: 20%
